Measured values as given in ChEMBL document CHEMBL3352811, “Novel pyrazoline derivatives as bi-inhibitor of COX-2 and B-Raf in treating cervical carcinoma” (Bioorg Med Chem, 2014).

Assays:
[1] = molecular target: Prostaglandin G/H synthase 1 (Homo sapiens, UniProt P23219); assay: Inhibition of COX1 (unknown origin) by solid phase ELISA method
[2] = Antiproliferative activity against human WM266.4 cells after 24 hrs by MTT assay; type: functional; details: WM 266-4, 24 h
[3] = test system: HeLa; assay: Antiproliferative activity against human HeLa cells after 24 hrs by MTT assay; type: functional
[4] = Inhibition of mouse B-Raf V600E mutant assessed as as reduction in human N-terminal His-tagged MEK1 phosphorylation pre-incubated with compound for 1 hr
[5] = species: Homo sapiens; assay: Selectivity index, ratio of IC50 for COX1 (unknown origin) to IC50 for COX2 (unknown origin)
[6] = molecular target: T1, Prostaglandin G/H synthase 2 (Homo sapiens, UniProt P35354); assay: Inhibition of COX2 (unknown origin) by solid phase ELISA method
T1 sequence (P35354 whole entry): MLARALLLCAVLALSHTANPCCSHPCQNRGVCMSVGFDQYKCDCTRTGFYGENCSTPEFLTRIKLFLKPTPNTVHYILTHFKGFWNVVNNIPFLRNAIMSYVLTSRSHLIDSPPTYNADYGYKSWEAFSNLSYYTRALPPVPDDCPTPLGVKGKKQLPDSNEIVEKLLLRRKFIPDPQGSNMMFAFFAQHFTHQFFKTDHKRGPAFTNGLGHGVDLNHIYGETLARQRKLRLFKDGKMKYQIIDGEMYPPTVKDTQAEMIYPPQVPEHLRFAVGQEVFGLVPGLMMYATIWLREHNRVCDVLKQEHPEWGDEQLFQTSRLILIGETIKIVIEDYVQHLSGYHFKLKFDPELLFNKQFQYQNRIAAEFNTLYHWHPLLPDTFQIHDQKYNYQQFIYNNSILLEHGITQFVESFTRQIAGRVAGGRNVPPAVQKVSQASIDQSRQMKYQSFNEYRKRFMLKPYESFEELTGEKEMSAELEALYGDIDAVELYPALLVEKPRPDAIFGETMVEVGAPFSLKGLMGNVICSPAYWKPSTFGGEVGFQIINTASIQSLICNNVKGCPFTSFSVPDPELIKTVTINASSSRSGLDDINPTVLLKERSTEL

Sequence of Prostaglandin G/H synthase 1 (P23219 whole entry): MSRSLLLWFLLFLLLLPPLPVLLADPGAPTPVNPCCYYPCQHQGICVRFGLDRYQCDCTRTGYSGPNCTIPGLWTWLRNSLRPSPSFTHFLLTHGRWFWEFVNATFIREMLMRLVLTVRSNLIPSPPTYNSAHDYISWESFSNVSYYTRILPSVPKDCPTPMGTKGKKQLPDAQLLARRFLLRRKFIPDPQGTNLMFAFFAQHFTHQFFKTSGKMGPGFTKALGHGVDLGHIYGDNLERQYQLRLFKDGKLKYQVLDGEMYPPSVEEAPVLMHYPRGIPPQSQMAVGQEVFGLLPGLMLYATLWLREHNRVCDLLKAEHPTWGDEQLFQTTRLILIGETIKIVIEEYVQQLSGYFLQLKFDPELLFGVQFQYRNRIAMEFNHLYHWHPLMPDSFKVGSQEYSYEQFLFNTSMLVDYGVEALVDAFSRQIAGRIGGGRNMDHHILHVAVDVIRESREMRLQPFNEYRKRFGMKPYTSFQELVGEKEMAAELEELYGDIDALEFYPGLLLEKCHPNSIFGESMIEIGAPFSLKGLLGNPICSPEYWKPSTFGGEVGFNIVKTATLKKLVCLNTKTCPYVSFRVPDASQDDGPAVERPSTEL

| Compound | IC50 [1] | GI50 [2] | GI50 [3] | IC50 [4] | Ratio IC50 [5] | IC50 [6] |
| --- | --- | --- | --- | --- | --- | --- |
| Cc1ccc(S(=O)(=O)N2N=C(C(F)(F)F)CC2c2cccc3ccccc23)cc1 (stereo not given) | 153 µM | 1.06 µM | > 500 µM | 1.01 µM | 1.7 | – |
| NS(=O)(=O)c1ccc(N2N=C(C(F)(F)F)CC2c2cccc3c2OCO3)cc1 (stereo not given) | 10 µM | 1.32 µM | 26.2 µM | 1.77 µM | 197 | – |
| Cc1ccc(S(=O)(=O)N2N=C(C(F)(F)F)CC2c2ccc3c(c2)OCCO3)cc1 (stereo not given) | 4.63 µM | 0.83 µM | 24.8 µM | 0.25 µM | 3.5 | – |
| CCCS(=O)(=O)Nc1ccc(F)c(C(=O)c2c[nH]c3ncc(-c4ccc(Cl)cc4)cc23)c1F [VEMURAFENIB] | – | – | – | 0.06 µM | – | – |
| NS(=O)(=O)c1ccc(N2N=C(C(F)(F)F)CC2c2cccc3ccccc23)cc1 (stereo not given) | 17 µM | 8.91 µM | 29.5 µM | 8.23 µM | – | – |
| O=S(=O)(c1ccccc1)N1N=C(C(F)(F)F)CC1c1ccc2ccccc2c1 (stereo not given) | 7.23 µM | > 500 µM | > 500 µM | > 100 µM | 0.04 | 174 µM |
| CS(=O)(=O)c1ccc(N2N=C(C(F)(F)F)CC2c2ccc3c(c2)OCCO3)cc1 (stereo not given) | 64.9 µM | 1.12 µM | 23.5 µM | 0.89 µM | 270 | – |
| NS(=O)(=O)c1ccc(N2N=C(C(F)(F)F)CC2c2ccc3c(c2)OCO3)cc1 (stereo not given) | 19 µM | 2.47 µM | – | 3.84 µM | > 500 | – |
| CS(=O)(=O)c1ccc(N2N=C(C(F)(F)F)CC2c2cccc3c2OCCO3)cc1 (stereo not given) | 40.6 µM | 0.76 µM | 26 µM | 0.12 µM | – | – |
| NS(=O)(=O)c1ccc(N2N=C(C(F)(F)F)CC2c2cccc3c2OCCO3)cc1 (stereo not given) | 34.5 µM | 0.82 µM | 26 µM | 0.15 µM | > 500 | – |
| O=S(=O)(c1ccccc1)N1N=C(C(F)(F)F)CC1c1ccc2c(c1)OCO2 (stereo not given) | 14.1 µM | 1.63 µM | 34.6 µM | 2.41 µM | 2.5 | – |
| O=S(=O)(c1ccccc1)N1N=C(C(F)(F)F)CC1c1cccc2c1OCO2 (stereo not given) | 8.75 µM | 13.6 µM | > 500 µM | 9.46 µM | 0.14 | – |
| NS(=O)(=O)c1ccc(N2N=C(C(F)(F)F)CC2c2ccc3ccccc3c2)cc1 (stereo not given) | 19 µM | 1.09 µM | 49.8 µM | 1.15 µM | 1.3 | – |
| CS(=O)(=O)c1ccc(N2N=C(C(F)(F)F)CC2c2cccc3c2OCO3)cc1 (stereo not given) | 10.8 µM | 16.8 µM | 38.6 µM | 9.86 µM | 269 | – |
| O=S(=O)(c1ccccc1)N1N=C(C(F)(F)F)CC1c1ccc2c(c1)OCCO2 (stereo not given) | 106 µM | > 500 µM | 58.9 µM | > 100 µM | 54 | – |
| CS(=O)(=O)c1ccc(N2N=C(C(F)(F)F)CC2c2ccc3ccccc3c2)cc1 (stereo not given) | 38.7 µM | 0.97 µM | 63.6 µM | 0.67 µM | 2.2 | – |
| Cc1ccc(S(=O)(=O)N2N=C(C(F)(F)F)CC2c2ccc3c(c2)OCO3)cc1 (stereo not given) | 3.72 µM | 1.63 µM | 28.7 µM | 2.26 µM | 7 | – |
| Cc1ccc(S(=O)(=O)N2N=C(C(F)(F)F)CC2c2cccc3c2OCO3)cc1 (stereo not given) | 10.4 µM | 1.08 µM | > 500 µM | 1.11 µM | – | – |
| NS(=O)(=O)c1ccc(N2N=C(C(F)(F)F)CC2c2ccc3c(c2)OCCO3)cc1 (stereo not given) | 41.5 µM | 132 µM | 19.9 µM | 17 µM | > 500 | – |
| O=c1[nH]cc(F)c(=O)[nH]1 [FLUOROURACIL] | – | 28.8 µM | 30.2 µM | – | – | – |
| CS(=O)(=O)c1ccc(N2N=C(C(F)(F)F)CC2c2cccc3ccccc23)cc1 (stereo not given) | 15.2 µM | 10.6 µM | 33.3 µM | 8.53 µM | – | – |
| O=S(=O)(c1ccccc1)N1N=C(C(F)(F)F)CC1c1cccc2ccccc12 (stereo not given) | 17.6 µM | 1.18 µM | > 500 µM | 1.24 µM | 0.26 | – |
| Cc1ccc(S(=O)(=O)N2N=C(C(F)(F)F)CC2c2ccc3ccccc3c2)cc1 (stereo not given) | > 500 µM | 1.01 µM | > 500 µM | 0.85 µM | 10.7 | – |
| O=S(=O)(c1ccccc1)N1N=C(C(F)(F)F)CC1c1cccc2c1OCCO2 (stereo not given) | 100 µM | 3.87 µM | 127 µM | 5.24 µM | 3.7 | – |
| Cc1ccc(S(=O)(=O)N2N=C(C(F)(F)F)CC2c2cccc3c2OCCO3)cc1 (stereo not given) | 15.4 µM | 1.34 µM | > 500 µM | 1.74 µM | 0.01 | > 500 µM |
| CS(=O)(=O)c1ccc(N2N=C(C(F)(F)F)CC2c2ccc3c(c2)OCO3)cc1 (stereo not given) | 57.5 µM | 0.89 µM | 27.6 µM | 0.49 µM | 411 | – |
